Results on 1 compound are retold here after patent publication US7141661B2, “Non-steroidal anti-inflammatory drug activated gene with anti-tumorigenic properties” (The United States of America as represented by the …, priority 2000, dated 2006).

Holding throughout (type): cell-based, human
The subject of assay [1] is NAG-1. Description: Northern blot analysis of NAG-1 mRNA expression in HCT-116 cells. Here is the method: Upon reaching 60–80% confluence in 10 cm plates, the cells were treated at indicated concentrations and times with either different NSAIDs or PPARγ ligands in the absence of serum. Total RNAs were isolated using TRIzol reagent (Life Technologies) according to the manufacturer's protocol. For Northern blot analysis, […] of total RNA was denatured at 55° C. for 15 min and separated in a 1.2% agarose gel containing 2.2 M formaldehyde, and transferred to Hybond-N membrane ([…]). After fixing the membrane by UV, blots were prehybridized in hybridization solution (Rapid-hyb buffer, […]) for 1 hr at 65° C. followed by hybridization with cDNA labeled with [α-^32P]dCTP by random primer extension (DECAprimeII kit, Ambion). The probes used were either full-length NAG-1 fragment or PTGFB clone (generously provided by Dr. Bento-Soar of the University of Iowa). After 4 hr incubation at 65° C., the blots were washed once with 2×SSC/0.1% SDS at RT and twice with 0.1×SSC/0.1% SDS at 65° C. Messenger RNA abundance Was estimated by intensities of the hybridization bands of autoradiographs using Scion Image (Scion). Equivalent loading of RNA samples was confirmed by hybridizing the same blot with a ^32P-labeled b-actin probe which recognizes RNA of approximately 2 kb.
To determine whether other NSAIDs increased apoptosis and NAG-1 expression, tests were conducted to determine whether variants of NSAIDs induced NAG-1 gene expression and NSAID-induced apoptosis. Aspirin, ibuprofen, indomethacin, and sulindac sulfide were selected since they are known COX inhibitors. […] HCT-116 cells were treated with different NSAIDs (vehicle, 0.2% DMSO; aspirin, 10 mM; ibuprofen, 1 mM; sodium salicylate, 5 mM; sulindac sulfide, 50 μM; sulindac, 40 μM; acetaminophen, 100 μM) for 24 hr in the absence of serum. Northern analysis was performed using NAG-1 and β-actin as probes. Total RNAs were isolated from NSAID-treated HCT-116 cells after 24 hr treatment and Northern blot was performed using NAG-1 cDNA as a probe (data not shown). […] Each of the doses were as follows: aspirin (1, 5, 10 mM); ibuprofen (100, 500, 1000 μM); salicylate (1, 2.5, 5 mM); sulindac sulfide (1, 10, 50 μM); sulindac (10, 20, 40 μM); acetaminophen (10, 50, 100 μM). After 48 hr treatment with NSAIDs in the presence of serum, cells were harvested and assayed as described in FIG. 1C. Apoptosis detected by PI staining was measured by FACS, as known in the art (FIG. 2A; HCT-116 cells were treated with different NSAIDs (vehicle, 0.2% DMSO; Aspirin, 10 mM; Ibuprofen, 1 mM; Sodium Salicylate, 5 mM; Sulindac Sulfide, 50 μM; Sulindac, 40 μM; Acetaminophen, 100 μM) for 24 hr in the absence of serum. Northern analysis was performed using NAG-1 and β-actin as probes. The open bars represent the relative expression of NAG-1 mRNA over the control (vehicle). The hatched bars represent the relative apoptosis ratio over vehicle treatment by PI staining methods. N=3±S.D.).
In the Table below, HCT-116 cells were treated with different NSAIDs (vehicle, 0.2% DMSO) for 24 hr in the absence of serum. Northern analysis was performed using NAG-1 and β-actin as probes. The data represent relative expression of NAG-1 mRNA over the control (1.0). Each NSAID was tested at 3 different concentrations and maximally effective concentration used for apoptosis determination. Apoptosis ratio by PI staining was measured by FACS. After 48 hr treatment with NSAIDs in the presence of serum, cells were harvested and assayed. The data represent relative apoptosis ratio over vehicle treatment by PI staining methods. TACS™ Annexin V-FITC kit was also used to confirm apoptosis.

The subject of assay [2] is NAG-1. The assay can be described thus: Northern blot NAG-1 induction in U937 leukemia cells. The conditions noted are these: INDO treatment, 24 hr. On the procedure:
NSAID-induced apoptosis is not restricted to colorectal cells, as NSAIDs can induce apoptosis in breast, lung, leukemia, and prostate cell lines. To test for the induction of NAG-1 by NSAIDs in different cell lines, A549 lung epithelial cells, MCF-7 mammary cells, PC-3 prostate cancer cells, and U937 leukemia cell lines were treated with several concentrations of INDO and aspirin. Then, as described above, Northern blot analysis was performed. […] Quiescent cells were grown for 24 hr in the presence of indicated NSAIDs. Total RNAs were isolated and subjected to Northern analysis using NAG-1 and β-actin as probes. The blots contained 10 μg of total RNA from INDO- or Aspirin (Asp)-treated cells with indicated doses. “V” indicates total RNAs from vehicle (0.2% DMSO) treated cells. The results shown are representative of those obtained in two experiments.

The subject of assay [3] is HCT-116 cells. The assay can be described thus: Apoptosis by FACS in HCT-116 cells stably transfected with vector, sense or antisense NAG-1. The settings on record: 100 μM, 48 hr. The source says:
(§1) HCT-116 cells were stably transfected with an expression vector containing the full-length NAG-1 coding region in the sense and antisense orientations. The sense cells expressed NAG-1 protein at a level that was 2.0–2.5 fold greater than the vector transfected cells, while the anti-sense cells expressed slightly lower NAG-1 levels compared to vector transfected cells. […] The full-length NAG-1 (sense strand and antisense strand) was cloned into the pCDNA3.1 expression vector and transfected into HCT-116 cells. Each cell was grown under G418 (500 μg/ml) for 2 weeks and treated with either vehicle or INDO (100 μM). After growing for 48 hr, the media was harvested, concentrated, and subjected to Western analysis. Thirty μg of total protein was loaded in each lane, and the arrow indicates the NAG-1 protein band.
Despite repeated attempts, construction of NAG-1 highly expressing cells which may be linked to high rates of apoptosis were not generated (data not shown). […] This could be due to effects on cell proliferation and/or an increase in cell death. […] The stably transfected cells were then incubated with 100 μM indomethacin for 48 hr and the percentage of cells in apoptosis determined by FACS analysis as described in Example 1. The data shown in FIG. 6 represent mean±S.D. Indomethacin enhanced the percentage of apoptotic cells by approximately 2 fold in the vector-HCT-116 and sense cells.
On the technique in general: In flow cytometry, cells or beads pass a laser one at a time.

The subject of assay [4] is NAG-1. The assay can be described thus: Western analysis of NAG-1 in stably transfected HCT-116 cells. The conditions noted are these: antisense HCT-116 cells, 100 μM, 48 hr.
Text: as §1

In assay [5] the test system is NAG-1. Description: Northern blot analysis of NAG-1 mRNA expression in HCT-116 cells. The conditions noted are these: HCT-116, 100 μM INDO, 48 hr, no serum.

Consider `COc1ccc2c(c1)c(CC(=O)O)c(C)n2C(=O)c1ccc(Cl)cc1` [Indomethacin], for which the “NAG-1 mRNA expression” value was “significant increase” in assay [1] (HCT-116, 100 μM INDO, 24 hr, no serum) and “further increase” in assay [5]. In addition, the “NAG-1 Induction (mRNA) Fold” value in assay [1] (HCT-116, 24 hr in absence of serum, relative NAG-1 mRNA over vehicle control (1.0), tested over the concentration range listed) stood at 2.2 Fold. In addition, in assay [2], the NAG-1 expression entry is on record as “only a modest increase”. Further, in assay [3] (antisense HCT-116 cells), the Stimulation of apoptosis entry is listed as “did not stimulate apoptosis”. Moreover, the “Enhancement of percentage of apoptotic cells” value in assay [3] (sense NAG-1 HCT-116 cells) and in assay [3] (vector-HCT-116 cells) was “approximately 2 fold” each time. In assay [4], the “Expression of NAG-1” value was “did not stimulate apoptosis or increase the expression of NAG-1”.
